Values quoted from earlier work, collected in patent US20190070157A1, “HYPERBARIC SOLUTION INJECTION OF LEVOBUPIVACAINE HYDROCHLORIDE COMPRISING LEVOBUPIVACAINE HYDROCHLORIDE” (NEON LABORATORIES LIMITED, priority 2015, published 2019).

Conditions: animal studies, compared with bupivacaine

CCCCN1CCCC[C@H]1C(=O)Nc1c(C)cccc1C [Levobupivacaine]
risk of cardiovascular and CNS toxicity: lower risk of cardiovascular and CNS toxicity than bupivacaine
